Consider three molecules from US4624950A, “Method for treating atherosclerosis hyperlipidema, lipid deposition on arterial walls, or raising the ratio of high density lipoprotein cholesterol to total cholesterol in serum” (Nissan Chemical Industries Ltd., priority 1983, dated 1986).

For data set [1], the system named is Triton-induced hyperlipidemic rats. Description: Antihyperlipidemic activity in Triton-induced hyperlipidemic rats, method A (24 hours) (Test 2). The data set is classed as in vivo, rat (male S.D.). The procedure: (§1) Cholesterol in serum was measured by means of a cholesterol measuring kit (Cholesterol C-Test Wako, manufactured by Wako Junyaku Co., Ltd.), and cholesterol in HDL was measured by means of NC Hi-Set, manufactured by Nippon Chemiphar Co., Ltd. The quantitative analysis of triglyceride was conducted by means of a triglyceride measuring kit (Triglyceride C-II-Test Wako, manufactured by Wako Junyaku Co., Ltd.). Further, the change rate in the following Tables, was calculated by the following equation. Change rate(%)=(A-B/A)×100 where A is the amount of serum lipids (mg/dl) of the control group, and B is the amount of serum lipids (mg/dl) of the group to which the therapeutic agent was administered. The antihyperlipidemic activity in Triton-induced hyperlipidemic rats Male S.D. rats weighing 230-250 g (7 weeks old) were divided into groups of 5 rats each and injected with a physiological saline solution of Triton Wr-1339 in a dose of 250 mg/kg (5 ml/kg) i.v. through the tail vein. […] The test compounds suspended in 0.5% CMC-Na were given to the rats in an amount of 2 ml/kg via stomach tube 1 hour before and 5 hours after (in the case of method A) or 1 hour before and 23 hours after (in the case of method B) the injection of Triton solution. Control rats received the same volume of the vehicle. The animals were fasted during the experimental period. The total cholesterol and triglyceride in the serum were measured.

For data set [2] the test system is unchanged. Description: Antihyperlipidemic activity in Triton-induced hyperlipidemic rats, method B (43 hours) (Test 2). The data set is classed as in vivo, rat (male S.D.). The procedure:
as §1

The test system of data set [3] is emulsion-induced hyperlipidemic rats. Description: Antihyperlipidemic activity in emulsion-induced hyperlipidemic rats (Test 1). The data set is classed as in vivo, rat (male S.D.). To be noted: 300 mg/kg/day p.o., 3 days. As to the method:
The daily dose of the compound of the formula I is from 0.01 to 3.0 g, preferably from 0.1 to 1.5 g, for an adult. It is administered from once to three times per day. The dose may of course be varied depending upon the age, the weight or the condition of illness of the patient. Now, the usefulness of the compound of the formula I as an antiatherosclerotic agent will be shown by tests. In the following tests, the fractionation of lipoproteins was conducted by a dextran sulfate-MgCl2 precipitation method.
(§2) Cholesterol in serum was measured by means of a cholesterol measuring kit (Cholesterol C-Test Wako, manufactured by Wako Junyaku Co., Ltd.), and cholesterol in HDL was measured by means of NC Hi-Set, manufactured by Nippon Chemiphar Co., Ltd. The quantitative analysis of triglyceride was conducted by means of a triglyceride measuring kit (Triglyceride C-II-Test Wako, manufactured by Wako Junyaku Co., Ltd.).
(§3) Further, the change rate in the following Tables, was calculated by the following equation.
(§4) Change rate(%)=(A-B/A)×100
(§5) where A is the amount of serum lipids (mg/dl) of the control group, and B is the amount of serum lipids (mg/dl) of the group to which the therapeutic agent was administered.
The antihyperlipidemic activity in emulsion-induced hyperlipidemic rats
Male S.D. rats weighing 80-90 g (4 weeks old) were used. They were divided into groups of 5 to 6 rats each. The test compounds suspended in 0.5% CMC-Na(carboxymethyl cellulose sodium salt) were given to the rats in a daily dose of 4 ml/kg via stomach tube every 10:00 a.m. After 30 min., lipids emulsion having the following composition was orally given to the rats in an amount of 2.5 ml per rat. During the experimental period of 3 days, the rats were fed on a standard commercial diet and water ad libitum. […] The total cholesterol and triglyceride, and HDL cholesterol were measured.

Data set [4] deals with cholesterol-fed hyperlipidemic rats. Description: Antihyperlipidemic activity in cholesterol-fed hyperlipidemic rats (Test 3). The data set is classed as in vivo, rat (male S.D.). As to the method: (§6) It is administered from once to three times per day. The dose may of course be varied depending upon the age, the weight or the condition of illness of the patient. […] In the following tests, the fractionation of lipoproteins was conducted by a dextran sulfate-MgCl2 precipitation method.
as §2, §3
Change rate(%)=(A-B/A)×100 where A is the amount of serum lipids (mg/dl) of the control group, and B is the amount of serum lipids (mg/dl) of the group to which the therapeutic agent was administered.
The antihyperlipidemic activity in cholesterol-fed hyperlipidemic rats
Male S.D. rats weighing 80-90 g (30 days old) were divided into groups of 5 rats each. The test compounds suspended in 0.5% CMC-Na were given to the rats in a daily dose of 0.4 ml per 100 g rat via stomach tube every 10:00 a.m. for 7 or 14 days. Control groups were given an equal volume of the vehicle. […] The total cholesterol, triglyceride and HDL cholesterol in serum were measured. After sacrificed, the livers were excised, washed with physiological saline, blotted on filter paper and weighed. The degree of hepatomegaly was calculated by the following equation.
Degree of hepatomegaly (%)=(D-C/C)×100 where C is the liver weight (g) per 100 g body weight in the control animal, and D is the liver weight (g) per 100 g body weight in the drug treated animal.

For another data set, the system named is normal rats. Description: Activities against serum lipid, degree of hepatomegaly and GOT/GPT in normal rats (Test 5). The data set is classed as in vivo, rat (male S.D.). To be noted: 300 mg/kg/day, seven days. As to the method:
as §6, §2, §3, §4, §5
The activities against serum lipid, the degree of hepatomegaly and the hepatic drug metabolizing systems of normal rats
Male S.D. rats (6 weeks old) were divided into groups of 5 rats each. The test compounds suspended in 5% gum arabic were given to the rats once a day for seven days in a daily dose of 300 mg/kg. Then, the rats were fasted for one day, blood samples were taken, and the total cholesterol, triglyceride, HDL-cholesterol in the serum were quantitatively analyzed. Further, the liver weight was measured, and the degree of hepatomegaly was determined by comparing the weight ratio per 100 g of the body weight with that of the control group. Furthermore, GOT and GPT values were measured, and the activities of cytochrome P-450 and glutathione related enzymes were also measured. These values were compared with those of the control groups to investigate any abnormality.

The conditions of data set [5]: reported for the agent and its derivatives; cited from earlier work.
For data set [6] the following is noted: animal experiments; Svoboda and Azarnoff, Cancer Res. 39, 3419 (1979); cited from earlier work.

Turning to `CCC(C)(Oc1ccc(C2(c3ccc(OC(C)(CC)C(=O)O)cc3)CCCCC2)cc1)C(=O)O` (stereo not shown) [Clinofibrate], in data set [1] (150 mg/kg p.o.), the “Change rate after 24 hours, Chol” value is reported as -21.0% and the “Change rate after 24 hours, TG” value was -33.0%. Besides, in data set [2] (150 mg/kg p.o.), the “Change rate after 43 hours, Chol” value was -38.0% and the “Change rate after 43 hours, TG” value is listed as -52.0%.
`CCOC(=O)C(C)(C)Oc1ccc(Cl)cc1` [Clofibrate, reference compound]: in data set [3], the “Serum lipid, HDL-Chol” value was 16.8 mg/dL; the “Serum lipid, TG” value came out at 87.7 mg/dL; the “Serum lipid, Total Chol” value was determined as 96.4 mg/dL. Besides, in data set [3] (vs control), the “Change rate, HDL-Chol” value was “+37.0%”; the “Change rate, TG” value was -42.7%; the “Change rate, Total Chol” value is given as -63.5%. For the same molecule, in data set [1] (300 mg/kg p.o.), the “Change rate after 24 hours, Chol” value is -5.0% and the “Change rate after 24 hours, TG” value is “+89.7%”. In data set [2] (300 mg/kg p.o.), the “Change rate after 43 hours, Chol” value is -0.5% and the “Change rate after 43 hours, TG” value was “+150.1%”. Further, in data set [4] (7th day, 50 mg/kg/day p.o.), the “Change rate, HDL-Chol” value is listed as -20.4%; the “Change rate, TG” value is listed as “+8.7%”; the “Change rate, Total-Chol” value was -4.3%; the Degree of hepatomegaly result is recorded as “+6.0%”. Further, in data set [4] (7th day, 50 mg/kg/day p.o.), the “Serum lipid, HDL-Chol” value is 14.4 mg/dL; the “Serum lipid, TG” value stood at 133.5 mg/dL; the “Serum lipid, Total-Chol” value is 417.5 mg/dL. Moreover, in data set [4] (7th day, 150 mg/kg/day p.o.), the “Change rate, HDL-Chol” value was -34.8%; the “Change rate, TG” value is on record as -9.0%; the “Change rate, Total-Chol” value is listed as -23.8%; the Degree of hepatomegaly entry was “+20.0%”. Also, in data set [4] (7th day, 150 mg/kg/day p.o.), the “Serum lipid, HDL-Chol” value was determined as 11.8 mg/dL; the “Serum lipid, TG” value was determined as 111.8 mg/dL; the “Serum lipid, Total-Chol” value came out at 332.2 mg/dL. Moreover, in data set [4] (14th day, 50 mg/kg/day p.o.), the “Change rate, HDL-Chol” value is “+8.0%”; the “Change rate, TG” value is -30.1%; the “Change rate, Total-Chol” value is recorded as -28.5%; the Degree of hepatomegaly entry is “+8.8%”. Further, in data set [4] (14th day, 50 mg/kg/day p.o.), the “Serum lipid, HDL-Chol” value turned out to be 9.4 mg/dL; the “Serum lipid, TG” value worked out at 116.6 mg/dL; the “Serum lipid, Total-Chol” value was 418.4 mg/dL. In addition, in data set [4] (14th day, 150 mg/kg/day p.o.), the “Change rate, HDL-Chol” value was “+68.1%”; the “Change rate, TG” value is -29.8%; the “Change rate, Total-Chol” value was -28.3%; the Degree of hepatomegaly result is given as “+22.8%”. Further, in data set [4] (14th day, 150 mg/kg/day p.o.), the “Serum lipid, HDL-Chol” value is 15.8 mg/dL; the “Serum lipid, TG” value is 117.7 mg/dL; the “Serum lipid, Total-Chol” value was found to be 420.0 mg/dL. Also, in the data set on normal rats, the “Serum lipid, HDL-Chol” value was determined as 11.0 mg/dL; the “Serum lipid, TG” value stood at 39.2 mg/dL; the “Serum lipid, Total-Chol” value is 20.6 mg/dL. Moreover, in the data set with normal rats (vs control), the “Change rate, HDL-Chol” value is given as -62.7%; the “Change rate, TG” value was -17.5%; the “Change rate, Total-Chol” value was -56.0%; the Degree of hepatomegaly entry is “+72.0%”. Moreover, the Reported side effects result in data set [5] was “myalgia or hepatic insufficiency, and they are likely to lead to gallstone formation”. In addition, the Hepatic carcinoma entry in data set [6] is reported as “brings about hepatic carcinoma”.
With `O=C(O)c1cccnc1` [nicotinic acid], in data set [5], the Reported side effects entry is recorded as “flashing or gastroenteric troubles”.
